What all share (assay): competitive gel-based ABPP
Assay type in all cases: cell-based

One experiment addresses T1, ABHD6 (Rattus norvegicus, UniProt Q5XI64).
T1 sequence (Q5XI64 1-337): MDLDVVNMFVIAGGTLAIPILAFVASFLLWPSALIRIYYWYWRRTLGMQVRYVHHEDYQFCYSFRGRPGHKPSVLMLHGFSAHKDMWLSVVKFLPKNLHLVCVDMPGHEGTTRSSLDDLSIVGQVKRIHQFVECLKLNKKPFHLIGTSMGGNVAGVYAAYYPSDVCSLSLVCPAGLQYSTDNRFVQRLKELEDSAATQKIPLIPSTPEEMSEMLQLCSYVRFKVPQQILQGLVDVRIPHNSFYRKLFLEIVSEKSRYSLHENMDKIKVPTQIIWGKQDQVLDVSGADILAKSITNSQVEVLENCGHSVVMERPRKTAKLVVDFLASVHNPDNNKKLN

The target in the next experiment is T2, MAGL (Rattus norvegicus, UniProt Q8R431).
T2 sequence (Q8R431 1-303): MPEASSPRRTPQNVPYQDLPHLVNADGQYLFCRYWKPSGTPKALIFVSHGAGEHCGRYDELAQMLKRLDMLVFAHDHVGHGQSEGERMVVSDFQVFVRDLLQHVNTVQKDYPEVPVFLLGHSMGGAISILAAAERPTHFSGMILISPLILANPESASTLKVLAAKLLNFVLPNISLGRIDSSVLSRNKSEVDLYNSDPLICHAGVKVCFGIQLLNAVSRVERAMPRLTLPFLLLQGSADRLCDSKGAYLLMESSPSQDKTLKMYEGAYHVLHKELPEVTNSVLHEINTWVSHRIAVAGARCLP

In another experiment the target is T3, FAAH (Rattus norvegicus, UniProt P97612).
T3 sequence (P97612 1-579): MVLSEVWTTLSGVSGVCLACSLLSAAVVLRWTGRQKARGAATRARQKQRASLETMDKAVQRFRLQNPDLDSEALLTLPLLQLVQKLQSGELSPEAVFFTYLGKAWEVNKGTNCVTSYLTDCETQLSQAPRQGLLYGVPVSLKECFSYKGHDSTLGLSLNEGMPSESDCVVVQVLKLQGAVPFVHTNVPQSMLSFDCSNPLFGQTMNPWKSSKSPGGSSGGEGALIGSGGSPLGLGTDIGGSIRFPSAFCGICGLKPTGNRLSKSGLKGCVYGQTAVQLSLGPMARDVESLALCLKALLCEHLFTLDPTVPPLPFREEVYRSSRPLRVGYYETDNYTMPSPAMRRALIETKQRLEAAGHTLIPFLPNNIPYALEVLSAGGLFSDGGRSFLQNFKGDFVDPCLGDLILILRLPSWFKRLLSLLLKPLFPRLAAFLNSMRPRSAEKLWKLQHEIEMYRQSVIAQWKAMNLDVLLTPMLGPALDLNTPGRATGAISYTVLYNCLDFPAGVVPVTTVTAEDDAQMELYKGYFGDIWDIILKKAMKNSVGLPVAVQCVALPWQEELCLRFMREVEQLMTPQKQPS

The values that follow come from publication PMC12016430 (The Journal of Headache and Pain, 2025).

The structures appear in SMILES notation.

On to `O=C(N1CCN(C(c2ccccc2)c2ccccc2)CC1)n1cncn1` [AKU-005], for which the “% inhibition at 100 nM” value on ABHD6 turned out to be 30; at MAGL it was 79; at FAAH it was 79.
